{"source": "patent US20120245111A1", "about": "“FLAVANONES-CONTAINING FOOD COMPOSITIONS” (NESTEC S.A., priority 2009, published 2012)", "experiment": "Particle size distribution of hesperidin in water by laser diffraction (Malvern Mastersizer 2000)", "format": "physicochemical", "method": "The particle size distribution is observed using a microscopy optic LEICA DMR (mode Differential Interference Contrast and polarisation). The particle size distribution is measured by laser diffraction using a Malvern Mastersizer 2000.\nThe hesperidin obtainable by the heat treatment processes of the invention has a smaller size distribution compared to commercially available hesperidin as illustrated in FIG. 3.\nFor variant 3 (140° C., 60 s) and variant 4 (160° C., 10 s), the cumulative distribution of particle size below 20 microns increases to 99%. Thus, it can be seen that the heat treatment has an influence on the particle size of hesperidin and on the conformation of hesperidin particles. Therefore, sedimentation is avoided.", "data": [{"smiles": "COc1ccc([C@@H]2CC(=O)c3c(O)cc(O[C@@H]4O[C@H](CO[C@@H]5O[C@@H](C)[C@H](O)[C@@H](O)[C@H]5O)[C@@H](O)[C@H](O)[C@H]4O)cc3O2)cc1O", "note": "[commercially available hesperidin, hesperidin]", "values": [{"measurement": "% of cumulative distribution of hesperidin particle below 20 microns", "setting": "0.5% hesperidin in water, before or after UHT treatment", "result": 40, "unit": "%"}, {"measurement": "crystal size distribution range", "setting": "commercially available hesperidin extract, crystalline form", "result": "0.1 to 160", "unit": "microns"}]}]}
